From patent US12479895B2, “C-terminal CDNF and MANF fragments, pharmaceutical compositions comprising same and uses thereof” (MyNeuroCure Oy, priority 2018, dated 2025) come the findings set out here.

Assay [1] has as its system ER stressed SCG neurons. The experiment in a line: Survival of tunicamycin-treated (ER stressed) SCG sympathetic neurons after microinjection. The format is cell-based, mice. To be noted: for survived neurons as % compared to neurons grown in the presence of NGF: microinjected into cytoplasm, CDNF (400); for Fold change of survived neurons compared to neurons injected with PBS: data of Table 1 divided by values of PBS. Summed up: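 Newborn mouse SCG neurons grown 5-6 days with 30 ng/ml NGF, then microinjected with CDNF (FL or C-terminal) plasmids (10 ng/ul, EGFP reporter) or proteins (200 ng/ul, Dextran Texas Red). Tunicamycin (2 μM) added next day. Fluorescent survivors counted blindly after 3 days as % of initial; compared with vector or PBS (ANOVA/Dunnett).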

Assay [2] concerns dopamine neurons. The assay is described as follows: Survival of TH-positive dopamine neurons in dissociated midbrain floor cultures. In kind it is cell-based, mouse. The note with it: for Fold change of survived neurons compared to neurons grown without growth factors: data of Table 3 divided by values of no factor. Summed up: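 Dissociated E13.5 NMRI mouse midbrain floor neurons grown five days in DMEM/F12 with N2, with polypeptides at a range of concentrations, GDNF (100 ng/ml), or nothing. TH-immunopositive neurons were counted by imaging. Values are a percentage of GDNF-maintained TH-positive neurons, as mean ± SEM from at least three independent cultures.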

[3] abbreviates: Table 1B (FIG. 16), exp1, tunicamycin 2 μM, counted after 3 days.
Where [4] appears, read: Table 1B (FIG. 16), exp2, tunicamycin 2 μM, counted after 3 days.
The mark [5] stands for this setting: Table 1B (FIG. 16), exp3, tunicamycin 2 μM, counted after 3 days.
Where [6] appears, read: Table 3B (FIG. 17), AVG, 1 ng/ml, 5 days.
Where [7] appears, read: Table 3B (FIG. 17), AVG, 10 ng/ml, 5 days.
Setting [8] is: Table 3B (FIG. 17), AVG, 100 ng/ml, 5 days.
The mark [9] stands for this setting: Table 3B (FIG. 17), AVG, 1000 ng/ml, 5 days.

On to “TLDLASVDLRKMRVAELKQILHSWGEECRACAEKTDYVNLIQELAPKYA (listed as Homo sapiens) [pep4]”, for which the “survived neurons as % compared to neurons grown in the presence of NGF” value (“survived neurons as % … of NGF” for short) in assay [1] (Table 1A (FIG. 14), AVG of exp1-2, tunicamycin 2 μM) was found to be 79.15 % NGF; in assay [1] (Table 1A (FIG. 14), exp1, tunicamycin 2 μM, counted after 3 days), 81.25 % NGF; in assay [1] (Table 1A (FIG. 14), exp2, tunicamycin 2 μM, counted after 3 days), 77.05 % NGF. The “Fold change of survived neurons compared to neurons injected with PBS” value is recorded as 2.16 Fold to PBS in assay [1] (Table 2, AVG); 2.37 Fold to PBS in assay [1] (Table 2, exp1); 1.94 Fold to PBS in assay [1] (Table 2, exp2). Further, the “survived neurons as % compared to neurons grown in the presence of GDNF” value (from here on “survived neurons as % … of GDNF”) in assay [2] (Table 3A (FIG. 15), AVG, 1 ng/ml, 5 days) was 69.14 % GDNF; in assay [2] (Table 3A (FIG. 15), AVG, 10 ng/ml, 5 days) it was 70.54 % GDNF; in assay [2] (Table 3A (FIG. 15), AVG, 100 ng/ml, 5 days) it was 70.14 % GDNF; in assay [2] (Table 3A (FIG. 15), AVG, 1000 ng/ml, 5 days) it was 76.27 % GDNF; in assay [2] (Table 3A (FIG. 15), exp1, 1 ng/ml, 5 days) it was 61.71 % GDNF; in assay [2] (Table 3A (FIG. 15), exp1, 10 ng/ml, 5 days), 64.44 % GDNF. The “survived neurons as % … of GDNF” value stood at 69.02 % GDNF in assay [2] (Table 3A (FIG. 15), exp1, 100 ng/ml, 5 days); 68.35 % GDNF in assay [2] (Table 3A (FIG. 15), exp1, 1000 ng/ml, 5 days); 79.99 % GDNF in assay [2] (Table 3A (FIG. 15), exp2, 1 ng/ml, 5 days); 81.47 % GDNF in assay [2] (Table 3A (FIG. 15), exp2, 10 ng/ml, 5 days); 73.24 % GDNF in assay [2] (Table 3A (FIG. 15), exp2, 100 ng/ml, 5 days); 83.39 % GDNF in assay [2] (Table 3A (FIG. 15), exp2, 1000 ng/ml, 5 days). The “survived neurons as % … of GDNF” value in assay [2] (Table 3A (FIG. 15), exp3, 1 ng/ml, 5 days) is 65.71 % GDNF; in assay [2] (Table 3A (FIG. 15), exp3, 10 ng/ml, 5 days), 65.71 % GDNF; in assay [2] (Table 3A (FIG. 15), exp3, 100 ng/ml, 5 days), 68.14 % GDNF; in assay [2] (Table 3A (FIG. 15), exp3, 1000 ng/ml, 5 days) it was 77.07 % GDNF. For the same sequence, the “Fold change of survived neurons compared to neurons grown without growth factors” value in assay [2] (Table 4, AVG, 1 ng/ml) is 1.12 fold; in assay [2] (Table 4, AVG, 10 ng/ml), 1.14 fold; in assay [2] (Table 4, AVG, 100 ng/ml), 1.14 fold; in assay [2] (Table 4, AVG, 1000 ng/ml), 1.24 fold; in assay [2] (Table 4, exp1, 1 ng/ml) it was 1.08 fold; in assay [2] (Table 4, exp1, 10 ng/ml) it was 1.13 fold. Besides, the “Fold change of survived neurons compared to neurons grown without growth factors” value is given as 1.21 fold in assay [2] (Table 4, exp1, 100 ng/ml); 1.20 fold in assay [2] (Table 4, exp1, 1000 ng/ml); 1.27 fold in assay [2] (Table 4, exp2, 1 ng/ml); 1.29 fold in assay [2] (Table 4, exp2, 10 ng/ml); 1.16 fold in assay [2] (Table 4, exp2, 100 ng/ml); 1.32 fold in assay [2] (Table 4, exp2, 1000 ng/ml). Besides, the “Fold change of survived neurons compared to neurons grown without growth factors” value in assay [2] (Table 4, exp3, 1 ng/ml) was 1.01 fold; in assay [2] (Table 4, exp3, 10 ng/ml), 1.01 fold; in assay [2] (Table 4, exp3, 100 ng/ml) it was 1.05 fold; in assay [2] (Table 4, exp3, 1000 ng/ml) it was 1.19 fold.
On to “TLDLASVDLRKMRVAELKQILHSWGEECRARACAEKTDYVNLIQELAPKYA (Mutated C-CDNF peptide) [pep11]”, for which the “survived neurons as % … of NGF” value is 46.25 % NGF in assay [1] (setting [3]), 48.61 % NGF in assay [1] (setting [4]) and 44.64 % NGF in assay [1] (setting [5]). Also, the “survived neurons as % … of GDNF” value in assay [2] (setting [6]) worked out at 59.60 % GDNF; in assay [2] (setting [7]), 60.76 % GDNF; in assay [2] (setting [8]), 69.28 % GDNF; in assay [2] (setting [9]), 70.22 % GDNF.
With “RVAELKQILHSWGEECRACAEKTDYVNLIQELAPKYA (listed as Homo sapiens) [pep8]”, the “survived neurons as % … of NGF” value in assay [1] (setting [3]) is recorded as 77.94 % NGF; in assay [1] (setting [4]), 65.57 % NGF; in assay [1] (setting [5]) it was 73.91 % NGF. The “rescue of ER stressed SCG neurons (result in words)” value in assay [1] (protein or peptide microinjected into the cytoplasm, tunicamycin 2 μM, living fluorescent neurons counted after 3 days) is recorded as “rescue”. Also, the “survived neurons as % … of GDNF” value in assay [2] (setting [6]) worked out at 64.02 % GDNF; in assay [2] (setting [7]), 75.69 % GDNF; in assay [2] (setting [8]), 85.95 % GDNF; in assay [2] (setting [9]), 81.43 % GDNF. The “protection of dopaminergic neurons in culture (result in words)” value in assay [2] (added to the culture medium, 5 days, TH-positive neurons counted) is given as “best protective effect”.
Take “TLDLASVDLRKMRVAELKQILHSWGEESRACAEKTDYVNLIQELAPKYA (C-CDNF peptide with single amino acid substitution) [pep9]”: the “survived neurons as % … of NGF” value was 41.23 % NGF in assay [1] (setting [3]), 44.00 % NGF in assay [1] (setting [4]) and 44.44 % NGF in assay [1] (setting [5]). Also, the “survived neurons as % … of GDNF” value in assay [2] (setting [6]) came to 62.74 % GDNF; in assay [2] (setting [7]), 69.29 % GDNF; in assay [2] (setting [8]), 71.62 % GDNF; in assay [2] (setting [9]), 67.12 % GDNF.
